# Target: T1, human mGluR5d (Homo sapiens, UniProt P41594)
# T1 construct: expressed in transfected cells; host or cells: GHEK (HEK cells expressing a glutamate transporter) for the IP3 assay
# Assay: Functional assessment of mGluR5 antagonism in cell lines expressing mGluR5d (FLIPR calcium mobilization / IP3 turnover; assay not given)
# Assay type: cell-based
# Settings: cells expressing human mGluR5d; assay (FLIPR or IP3) not stated
# Description: The pharmacological properties of the compounds of the invention can be analyzed using standard assays for functional activity. Examples of glutamate receptor assays are well known in the art as described in for example Aramori et al., Neuron 8:757 (1992), Tanabe et al., Neuron 8:169 (1992), Miller et al., J. Neuroscience 15: 6103 (1995), Balazs, et al., J. Neurochemistry 69:151 (1997). The methodology described in these publications is incorporated herein by reference. Conveniently, the compounds of the invention can be studied by means of an assay that measures the mobilization of intracellular calcium, [Ca^2+]i in cells expressing mGluR5.
# Intracellular calcium mobilization was measured by detecting changes in fluorescence of cells loaded with the fluorescent indicator fluo-3. Fluorescent signals were measured using the FLIPR system (Molecular Devices). A two addition experiment was used that could detect compounds that either activate or antagonize the receptor.
# For FLIPR analysis, cells expressing human mGluR5d were seeded on collagen coated clear bottom 96-well plates with black sides and analysis of [Ca^2+]i mobilization was done 24 hours after seeding.
# FLIPR experiments were done using a laser setting of 0.800 W and a 0.4 second CCD camera shutter speed. Each FLIPR experiment was initiated with 160 μL of buffer present in each well of the cell plate. After each addition of the compound, the fluorescence signal was sampled 50 times at 1 second intervals followed by 3 samples at 5 second intervals. Responses were measured as the peak height of the response within the sample period.
# EC50 and IC50 determinations were made from data obtained from 8-point concentration response curves (CRC) performed in duplicate. Agonist CRC were generated by scaling all responses to the maximal response observed for the plate. Antagonist block of the agonist challenge was normalized to the average response of the agonist challenge in 14 control wells on the same plate.
# We have validated a secondary functional assay for mGluR5d based on Inositol Phosphate (IP3) turnover. IP3 accumulation is measured as an index of receptor mediated phospholipase C turnover. GHEK cells stably expressing the human mGluR5d receptors were incubated with [3H] myo-inositol overnight, washed three times in HEPES buffered saline and pre-incubated for 10 minutes with 10 mM LiCl. Compounds (agonists) were added and incubated for 30 minutes at 37° C. Antagonist activity was determined by pre-incubating test compounds for 15 minutes, then incubating in the presence of glutamate (80 μM) or DHPG (30 μM) for 30 minutes. Reactions were terminated by the addition of perchloric acid (5%). Samples were collected and neutralized, and inositol phosphates were separated using Gravity-Fed Ion-Exchange Columns.
# Functional Assessment of mGluR5 Antagonism in Cell Lines Expressing mGluR5d
# The properties of the compounds of the invention can be analyzed using standard assays for pharmacological activity. Examples of glutamate receptor assays are well known in the art as described in for example Aramori et al, Neuron 8:757 (1992), Tanabe et al., Neuron 8:169 (1992), Miller et al, J. Neuroscience 15: 6103 (1995), Balazs, et al, J. Neurochemistry 69:151 (1997). The methodology described in these publications is incorporated herein by reference. Conveniently, the compounds of the invention can be studied by means of an assay (FLIPR) that measures the mobilization of intracellular calcium, [Ca^2+]i in cells expressing mGluR5 or another assay (IP3) that measures inositol phosphate turnover.
# Cells expressing human mGluR5d as described in W097/05252 are seeded at a density of 100,000 cells per well on collagen coated clear bottom 96-well plates with black sides and experiments are done 24 h following seeding. […]
# T1 sequence (P41594 21-942 isoform P41594-3 limits assumed): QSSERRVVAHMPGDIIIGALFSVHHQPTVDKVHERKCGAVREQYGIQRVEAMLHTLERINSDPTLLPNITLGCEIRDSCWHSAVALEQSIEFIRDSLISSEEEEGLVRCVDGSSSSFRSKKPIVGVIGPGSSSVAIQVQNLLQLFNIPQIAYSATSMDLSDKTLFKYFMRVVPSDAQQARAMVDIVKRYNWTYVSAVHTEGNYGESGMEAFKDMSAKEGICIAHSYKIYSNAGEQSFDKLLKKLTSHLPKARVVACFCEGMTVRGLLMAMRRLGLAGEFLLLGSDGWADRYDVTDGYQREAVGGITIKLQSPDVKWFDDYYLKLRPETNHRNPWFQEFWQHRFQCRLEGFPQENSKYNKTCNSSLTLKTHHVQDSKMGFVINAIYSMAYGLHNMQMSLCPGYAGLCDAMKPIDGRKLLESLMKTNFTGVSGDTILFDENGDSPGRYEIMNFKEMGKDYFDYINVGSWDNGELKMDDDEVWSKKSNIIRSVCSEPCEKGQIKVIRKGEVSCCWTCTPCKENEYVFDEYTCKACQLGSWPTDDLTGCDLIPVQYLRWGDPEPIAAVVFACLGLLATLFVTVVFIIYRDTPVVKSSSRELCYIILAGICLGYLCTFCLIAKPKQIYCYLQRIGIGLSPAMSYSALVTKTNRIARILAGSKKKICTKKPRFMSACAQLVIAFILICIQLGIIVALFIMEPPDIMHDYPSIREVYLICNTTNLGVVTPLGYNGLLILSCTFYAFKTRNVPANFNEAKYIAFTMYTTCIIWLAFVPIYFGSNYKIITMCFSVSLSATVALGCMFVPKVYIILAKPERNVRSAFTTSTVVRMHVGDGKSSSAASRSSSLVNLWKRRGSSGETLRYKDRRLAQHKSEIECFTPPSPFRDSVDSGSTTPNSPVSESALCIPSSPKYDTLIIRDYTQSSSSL
smiles,measurement,value
"N#Cc1cccnc1N1CCN2[C@@H](CC[C@@H]2c2cn(-c3cccc(F)c3)nn2)C1 (racemic) [Example 4.1, (±)-2-[(6R,8aS)-6-[1-(3-fluorophenyl)-1H-1,2,3-triazol4-yl]hexahydropyrrolo[1,2-a]pyrazin-2(1H)-yl]nicotinonitrile]",EC50,219 nM
"N#Cc1nccnc1N1CCN2[C@@H](CC[C@@H]2c2nnn(-c3cccc(Cl)c3)n2)C1 (racemic) [Example 5.1, (±)-3-[(6R,8aS)-6-[2-(3-chlorophenyl)-2H-tetrazol-5-yl]hexahydropyrrolo[1,2-a]pyrazin-2(1H)-yl]pyrazine-2-carbonitrile]",EC50,10 nM
"Cc1cccc(-n2nnc([C@H]3CC[C@H]4CN(c5ncccc5C#N)CCN43)n2)c1 (racemic) [Example 5.4, (±)-2-[(6R,8aS)-6-[2-(3-methylphenyl)-2H-tetrazol-5-yl]hexahydropyrrolo[1,2-a]pyrazin-2(1H)-yl]nicotinonitrile]",EC50,16 nM
"N#Cc1ccc(N2CCN3[C@@H](CC[C@@H]3c3cc(-c4cccc(Cl)c4)on3)C2)nc1 (racemic) [Example 6.2, (±)-6-[(6R,8aS)-6-[5-(3-chlorolphenyl)isoxazol-3-yl]hexahydropyrrolo[1,2-a]pyrazin-2(1H)-yl]nicotinonitrile]",EC50,2410 nM
"N#Cc1nccnc1N1CCN2[C@@H](CC[C@@H]2c2cc(-c3cccc(Cl)c3)no2)C1 (racemic) [Example 8.1, (±)-3-[(6R,8aS)-6-[3-(3-chlorophenyl)isoxazol-5-yl]hexahydropyrrolo[1,2-a]pyrazin-2(1H)-yl]pyrazine-2-carbonitrile]",EC50,377 nM
"N#Cc1cccc(-c2cc([C@H]3CCC[C@H]4CN(c5nccnc5C#N)CCN43)no2)c1 (racemic) [Example 13.1, (±)-3-[(6R,9aS)-6-[5-(3-cyanophenyl)isoxazol-3-yl]octahydro-2H-pyrido[1,2-a]pyrazin-2-yl]pyrazine-2-carbonitrile]",EC50,159 nM
